Literature values as cited in patent US6423719B1, “Method for treating benign prostate hyperplasia” (Upsher-Smith Laboratories, Inc., priority 1999, dated 2002).

Legend:
[1] = for half life (plasma / elimination) / bioavailability: in vivo
5α-reductase = biological target: T1, 5α-reductase (Homo sapiens, UniProt P31213); conditions: stable enzyme complex with 5α-reductase
T1 sequence (P31213 1-254): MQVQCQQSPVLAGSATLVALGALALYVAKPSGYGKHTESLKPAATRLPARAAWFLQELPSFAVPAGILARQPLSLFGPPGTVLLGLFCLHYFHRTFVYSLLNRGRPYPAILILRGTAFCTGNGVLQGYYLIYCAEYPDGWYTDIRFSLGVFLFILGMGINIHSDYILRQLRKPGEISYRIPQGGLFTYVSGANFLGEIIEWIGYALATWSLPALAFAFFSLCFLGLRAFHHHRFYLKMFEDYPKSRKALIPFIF

[2] = in vivo

SMILES | half life (plasma / elimination) [1] | bioavailability [1] | further results
COc1cc2nc(N(C)CCCNC(=O)C3CCCO3)nc(N)c2cc1OC (stereo not drawn) [Alfuzosin] | about 5 hours | – | –
CC(C)(C)NC(=O)[C@H]1CC[C@H]2[C@@H]3CC[C@H]4NC(=O)C=C[C@]4(C)[C@H]3CC[C@]12C [Finasteride, N-(2-methyl-2-propyl)3-oxo-4-aza-5α-androst-1-ene-17β-carboxamide] | – | – | turnover from the enzyme complex (t½) (5α-reductase): ~30 days
O=C(NC1CCN(CCc2c[nH]c3ccccc23)CC1)c1ccccc1 [Indoramin] | about 5 hours | less than 30% | –
CC(COc1ccccc1)N(CCCl)Cc1ccccc1 (stereo not drawn) [Phenoxybenzamine] | – | – | half life ([1]; administered intravenously): approximately 24 hours
COc1cc2nc(N3CCN(C(=O)C4CCCO4)CC3)nc(N)c2cc1OC (stereo not drawn) [Terazosin] | approximately 12 hours | greater than 90% | water solubility: more water soluble than prazoin
Cn1c(=O)c2[nH]cnc2n(C)c1=O [theophylline] | – | – | dose excreted unchanged in the urine [2]: about 10%
